Laboratory results published in US20120130129A1, “Efficient Method for Preparing Functionalized Benzosuberenes” (BAYLOR UNIVERSITY, priority 2010, published 2012).
Read-outs that look alike come from different tables or passages of the source.

Tests used:
Bovine brain tubulin = test: Inhibition of tubulin polymerization (turbidimetric tubulin assembly); type: biochemical; conditions: for IC50: 10 μM tubulin, 20 min incubation, 30° C.; for Inhibition of tubulin assembly (in words): comparable to CA1, CA4
Method: Bovine brain tubulin was purified using methods previously described by Hamel (Cell Biochem. Biophys. 38:1-21 (2003)). The effect of compounds on tubulin assembly in vitro was determined by using a series of concentrations that were pre-incubated with 10 μM tubulin (1.0 mg/mL) in glutamate buffer at 30° C., followed by cooling to 0° C. After GTP was added, the samples were mixed and transferred to cuvettes at 0° C. in a recording spectrophotometer and warmed to 30° C. to initiate polymerization. Tubulin assembly was observed turbidimetrically at 350 nm. Tubulin disassembly was confirmed by cooling to 0° C. The calculated compound concentration that inhibited tubulin assembly by 50% after a 20 min incubation was defined as the IC50 value.

DU-145 (prostate) [1] = system: DU-145 (prostate)
SK-OV-3 (ovarian) [2] = system: SK-OV-3 (ovarian)
NCI-H460 (lung) [3] = system: NCI-H460 (lung)
DU-145 (prostate) [4] = test: Sulforhodamine B (SRB) growth inhibition assay; conditions: for GI50: Homo sapiens, DU-145, read-out: Cytotoxicity (GI50) DU-145
NCI-H460 (lung) [5] = test: Sulforhodamine B (SRB) growth inhibition assay; conditions: for GI50: Homo sapiens, NCI-H460, read-out: Cytotoxicity (GI50) NCI-H460
SK-OV-3 (ovarian) [6] = test: Sulforhodamine B (SRB) growth inhibition assay; conditions: Homo sapiens
human cancer cell lines [7] = conditions: previous studies, U.S. Pat. No. 7,429,681; cited from earlier work
human cancer cell lines [8] = test: Cytotoxicity against human cancer cell lines (SRB assay, whole panel); type: cell-based; conditions: each cell line of Table 2
[9] = SK-OV-3, read-out: Cytotoxicity (GI50) SK-OV-3

| GI50 (DU-145 (prostate) [1]) | GI50 (SK-OV-3 (ovarian) [2]) | GI50 (NCI-H460 (lung) [3]) | SMILES | further results |
| --- | --- | --- | --- | --- |
|  |  |  | COc1ccc(/C=C\c2cc(OC)c(OC)c(OC)c2)c(O)c1O [CA1, Combretastatin A-1, reference compound] | IC50 (Bovine brain tubulin): 1900 nM |
| 16300 nM | 18100 nM | 25900 nM | COc1cc(C2=CCCCc3c2cc(OC)c(OC)c3O)cc(OC)c1OC [Compound 36, 1-Hydroxy-2,3-dimethoxy-5-(3′,4′,5′-trimethoxyphenyl)-6,7,8,9-tetrahydro-5H-cyclobenzoheptan-5-ene] |  |
|  |  |  | COc1ccc2c(c1O)CCCC=C2c1cc(OC)c(OC)c(OC)c1 [Compound 23, 2-Methoxy-5-(3′,4′,5′-trimethoxyphenyl)-6,7,8,9-tetrahydro-5H-cyclobenzohepta-6-ene-1-ol] | GI50 (DU-145 (prostate) [4]): 0.00242 nM; IC50 (Bovine brain tubulin): 1700 nM; Inhibition of tubulin assembly (in words) (Bovine brain tubulin): potent inhibitors of tubulin assembly; GI50 (NCI-H460 (lung) [5]): 0.00192 nM; GI50 (SK-OV-3 (ovarian) [6]; [9]): 0.0242 nM; Cytotoxicity against human cancer cell lines (in words) (human cancer cell lines [7]): picomolar cytotoxicity |
| 783 nM | 341 nM | 410 nM | COc1cc(C2(O)CCCCc3c2ccc(O)c3O)cc(OC)c1OC (stereo not shown) [Compound 63, 1,2-Dihydroxy-5-(3′,4′,5′-trimethoxyphenyl)-6,7,8,9-tetrahydro-5H-cyclobenzoheptan-5-ol] |  |
|  |  |  | COc1cc(C2=CCCCc3c2ccc(OC)c3[N+](=O)[O-])cc(OC)c1OC [Compound 5, 1-Nitro-2-Methoxy-5-(3′,4′,5′-trimethoxyphenyl)-6,7,8,9-tetrahydro-5H-cyclobenzohepta-6-ene] | GI50 (DU-145 (prostate) [4]): 211 nM; IC50 (Bovine brain tubulin): 2500 nM; Inhibition of tubulin assembly (in words) (Bovine brain tubulin): potent inhibitors of tubulin assembly; GI50 (NCI-H460 (lung) [5]): 666 nM; Cytotoxicity compared with comparison compounds (in words) (human cancer cell lines [8]): significantly less cytotoxic than any of the comparison compounds; GI50 (SK-OV-3 (ovarian) [6]; [9]): 152 nM |
| 22000 nM | 19100 nM | 32500 nM | COc1cc(C2=CCCCc3ccccc32)cc(OC)c1OC [Compound 65, 5-(3′,4′,5′-trimethoxyphenyl)-6,7,8,9-tetrahydro-5H-cyclobenzohepta-5-ene] |  |
| 20500 nM | 22700 nM | 20900 nM | COc1cc2c(c(O)c1O)CCCC=C2c1cc(OC)c(OC)c(OC)c1 [Compound 13, 3-Methoxy-5-(3′,4′,5′-trimethoxyphenyl)-6,7,8,9-tetrahydro-5H-cyclobenzohepta-6-ene-1,2-diol] |  |
| 108 nM | 39.9 nM | 83.2 nM | COc1ccc2c(c1Cl)CCCC=C2c1cc(OC)c(OC)c(OC)c1 [Compound 46, 1-Chloro-2-methoxy-5-(3′,4′,5′-trimethoxyphenyl)-6,7,8,9-tetrahydro-5H-cyclobenzoheptan-5-ene] |  |
|  |  |  | COc1cc(C2=CCCCc3c2ccc(OC)c3O)cc(OC)c1O [Compound 71, 9-(4′-Hydroxy-3′,5′-dimethoxyphenyl)-3-methoxy-6,7-dihydro-5H-benzo[7]annulen-4-ol] | GI50 (DU-145 (prostate) [4]): 579 nM; GI50 (NCI-H460 (lung) [5]): 439 nM; GI50 (SK-OV-3 (ovarian) [6]; [9]): 378 nM |
|  |  |  | COc1ccc2c(c1N)CCCC=C2c1cc(OC)c(OC)c(OC)c1 [Compound 6, 2-Methoxy-5-(3′,4′,5′-trimethoxyphenyl)-6,7,8,9-tetrahydro-5H-cyclobenzohepta-6-ene-1-amine] | GI50 (DU-145 (prostate) [4]): 1.11 nM; Cytotoxicity (in words) (DU-145 (prostate) [4]; prostate cell line): strongly cytotoxic; IC50 (Bovine brain tubulin): 1200 nM; Inhibition of tubulin assembly (in words) (Bovine brain tubulin): potent inhibitors of tubulin assembly; GI50 (NCI-H460 (lung) [5]): 4.69 nM; Cytotoxicity (in words) (NCI-H460 (lung) [5]; non-small cell lung cell line): strongly cytotoxic; Cytotoxicity compared with comparison compounds (in words) (human cancer cell lines [8]): more active against each cell line than the natural products CA4 and CA1; GI50 (SK-OV-3 (ovarian) [6]; [9]): 0.0329 nM; GI50 (SK-OV-3 (ovarian) [6]; SK-OV-3, read-out: GI50 against ovarian cancer): 0.0329 nM |
| 9.66 nM | 5.94 nM | 26.6 nM | COc1cc(C2=CCCCc3c2ccc(OC)c3OP(=O)(O)O)cc(OC)c1OC [Compound 24, Disodium 2-Methoxy-5-(3′,4′,5′-trimethoxyphenyl)-6,7,8,9-tetrahydro-5H-cyclobenzohepta-6-ene-1-phosphate] |  |

| SMILES | GI50 (DU-145 (prostate) [1]) | GI50 (SK-OV-3 (ovarian) [2]) | GI50 (NCI-H460 (lung) [3]) | further results |
| --- | --- | --- | --- | --- |
| COc1ccc2c(c1F)CCCC=C2c1cc(OC)c(OC)c(OC)c1 [Compound 41, 1-Fluoro-2-methoxy-5-(3′,4′,5′-trimethoxyphenyl)-6,7,8,9-tetrahydro-5H-cyclobenzoheptan-5-ene] | 2.87 nM | 0.00724 nM | 4 nM |  |
| COc1ccc2c(c1)CCCC=C2c1cc(OC)c(OC)c(OC)c1 [Compound 50, 2-Methoxy-5-(3′,4′,5′-trimethoxyphenyl)-6,7,8,9-tetrahydro-5H-cyclobenzoheptan-5-ene] | 26.1 nM | 36.6 nM | 51 nM |  |
| COc1cc2c(c(OC)c1O)CCCC=C2c1cc(OC)c(OC)c(OC)c1 [Compound 16, 1,3-Dimethoxy-5-(3′,4′,5′-trimethoxyphenyl)-6,7,8,9-tetrahydro-5H-cyclobenzohepta-6-ene-2-ol] | 15700 nM | 7130 nM | 18000 nM |  |
| COc1cc(C2=CCCCc3c2ccc(OC)c3OC)cc(OC)c1OC [Compound 58, 1,2-Dimethoxy-5-(3′,4′,5′-trimethoxyphenyl)-6,7,8,9-tetrahydro-5H-cyclobenzohepta-6-ene] | 516 nM | 641 nM | 479 nM |  |
